Results as given in ChEMBL document CHEMBL2385071, “Synthesis and biological investigation of coumarin piperazine (piperidine) derivatives as potential multireceptor atypical antipsychotics” (J Med Chem, 2013).

Legend:
[1] = biological target: 5-hydroxytryptamine receptor 2A (Rattus norvegicus, UniProt P14842); assay: Displacement of [3H]ketanserin from 5HT2A receptor in rat cerebral cortex after 15 mins by liquid scintillation counting analysis; type: tissue-based
Histamine H1 receptor = Histamine H1 receptor (Cavia porcellus, UniProt P31389); assay: Displacement of [3H]mepyramine from histamine H1 receptor in guinea pig cerebellum after 60 mins by liquid scintillation counting analysis
[2] = biological target: T1, 5-hydroxytryptamine receptor 1A (Rattus norvegicus, UniProt P19327); assay: biochemical
T1 sequence (P19327 whole entry): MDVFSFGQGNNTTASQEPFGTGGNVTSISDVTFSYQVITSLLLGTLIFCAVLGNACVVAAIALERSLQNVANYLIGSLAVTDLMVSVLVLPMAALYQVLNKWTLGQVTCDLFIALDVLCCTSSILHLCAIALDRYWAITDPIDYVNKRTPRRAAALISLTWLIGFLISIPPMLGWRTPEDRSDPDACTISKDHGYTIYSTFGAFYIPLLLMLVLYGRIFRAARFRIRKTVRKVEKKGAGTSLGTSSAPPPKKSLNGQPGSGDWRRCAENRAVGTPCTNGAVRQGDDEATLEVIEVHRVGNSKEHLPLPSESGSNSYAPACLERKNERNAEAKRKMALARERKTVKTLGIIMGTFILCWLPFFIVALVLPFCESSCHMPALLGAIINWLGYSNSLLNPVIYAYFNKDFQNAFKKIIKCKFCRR
Description: Displacement of [3H]8-OH-DPAT from 5HT1A receptor in rat cerebral cortex after 30 mins by liquid scintillation counting analysis

[3] = biological target: T2, Adrenergic receptor alpha-2 (Rattus norvegicus, UniProt P22086+P19328+P22909)
T2 sequence (P22086 whole entry): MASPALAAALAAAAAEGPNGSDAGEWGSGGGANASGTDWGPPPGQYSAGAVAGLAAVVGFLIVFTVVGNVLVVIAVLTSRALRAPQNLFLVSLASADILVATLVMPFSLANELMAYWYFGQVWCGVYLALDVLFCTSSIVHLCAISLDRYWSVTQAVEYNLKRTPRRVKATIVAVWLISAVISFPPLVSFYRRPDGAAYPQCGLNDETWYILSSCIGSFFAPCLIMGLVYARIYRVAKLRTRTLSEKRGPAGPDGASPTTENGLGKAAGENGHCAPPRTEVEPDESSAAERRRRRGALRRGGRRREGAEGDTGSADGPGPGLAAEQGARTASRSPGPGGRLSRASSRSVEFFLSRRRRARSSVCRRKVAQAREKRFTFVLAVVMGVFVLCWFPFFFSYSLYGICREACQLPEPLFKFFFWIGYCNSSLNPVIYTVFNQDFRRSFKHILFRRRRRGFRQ
T2 sequence (P19328 whole entry): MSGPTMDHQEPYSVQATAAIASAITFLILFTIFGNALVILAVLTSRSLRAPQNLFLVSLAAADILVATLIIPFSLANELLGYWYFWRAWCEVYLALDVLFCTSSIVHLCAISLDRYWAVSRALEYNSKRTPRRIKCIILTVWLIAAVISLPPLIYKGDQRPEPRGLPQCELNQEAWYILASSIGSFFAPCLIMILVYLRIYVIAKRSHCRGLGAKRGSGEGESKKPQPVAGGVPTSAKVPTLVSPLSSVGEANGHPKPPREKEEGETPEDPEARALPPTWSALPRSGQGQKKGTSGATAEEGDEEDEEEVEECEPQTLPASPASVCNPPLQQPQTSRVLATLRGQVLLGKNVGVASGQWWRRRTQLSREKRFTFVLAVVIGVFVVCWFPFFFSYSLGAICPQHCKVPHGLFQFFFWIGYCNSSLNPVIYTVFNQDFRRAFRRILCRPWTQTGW
T2 sequence (P22909 whole entry): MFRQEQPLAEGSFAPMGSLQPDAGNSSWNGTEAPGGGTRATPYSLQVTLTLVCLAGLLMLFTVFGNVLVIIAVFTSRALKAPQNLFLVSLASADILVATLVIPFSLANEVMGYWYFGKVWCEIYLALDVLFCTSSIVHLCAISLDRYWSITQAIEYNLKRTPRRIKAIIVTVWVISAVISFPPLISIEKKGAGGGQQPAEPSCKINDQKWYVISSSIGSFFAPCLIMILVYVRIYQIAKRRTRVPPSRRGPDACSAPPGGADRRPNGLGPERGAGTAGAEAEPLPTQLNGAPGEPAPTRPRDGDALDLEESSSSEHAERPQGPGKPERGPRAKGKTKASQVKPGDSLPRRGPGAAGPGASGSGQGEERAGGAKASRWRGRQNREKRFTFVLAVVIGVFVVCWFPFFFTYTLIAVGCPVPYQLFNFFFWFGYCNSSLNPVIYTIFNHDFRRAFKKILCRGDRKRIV
Description: Displacement of [3H]rauwolscine from alpha-2 adrenergic receptor in rat cerebral cortex after 60 mins by liquid scintillation counting analysis

D(2) dopamine receptor = D(2) dopamine receptor (Rattus norvegicus, UniProt P61169)
[4] = biological target: T3, 5-hydroxytryptamine receptor 2C (Rattus norvegicus, UniProt P08909); assay: biochemical
T3 sequence (P08909 whole entry): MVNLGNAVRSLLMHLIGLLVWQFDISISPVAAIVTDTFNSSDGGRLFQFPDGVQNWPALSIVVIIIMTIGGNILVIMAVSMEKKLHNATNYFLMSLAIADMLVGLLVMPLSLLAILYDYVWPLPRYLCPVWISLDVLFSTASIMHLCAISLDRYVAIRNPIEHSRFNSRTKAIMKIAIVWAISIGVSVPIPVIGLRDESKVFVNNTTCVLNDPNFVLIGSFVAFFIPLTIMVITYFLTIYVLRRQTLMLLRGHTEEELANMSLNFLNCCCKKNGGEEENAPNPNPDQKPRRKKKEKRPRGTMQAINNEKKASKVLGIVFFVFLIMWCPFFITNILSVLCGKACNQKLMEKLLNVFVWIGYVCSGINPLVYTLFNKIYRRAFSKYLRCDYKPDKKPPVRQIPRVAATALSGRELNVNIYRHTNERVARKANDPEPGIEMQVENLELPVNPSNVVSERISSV
Description: Displacement of [3H]mesulergine from 5HT2C receptor in rat cerebral cortex after 15 mins by liquid scintillation counting analysis

Histamine H1 receptor, sequence (P31389 whole entry): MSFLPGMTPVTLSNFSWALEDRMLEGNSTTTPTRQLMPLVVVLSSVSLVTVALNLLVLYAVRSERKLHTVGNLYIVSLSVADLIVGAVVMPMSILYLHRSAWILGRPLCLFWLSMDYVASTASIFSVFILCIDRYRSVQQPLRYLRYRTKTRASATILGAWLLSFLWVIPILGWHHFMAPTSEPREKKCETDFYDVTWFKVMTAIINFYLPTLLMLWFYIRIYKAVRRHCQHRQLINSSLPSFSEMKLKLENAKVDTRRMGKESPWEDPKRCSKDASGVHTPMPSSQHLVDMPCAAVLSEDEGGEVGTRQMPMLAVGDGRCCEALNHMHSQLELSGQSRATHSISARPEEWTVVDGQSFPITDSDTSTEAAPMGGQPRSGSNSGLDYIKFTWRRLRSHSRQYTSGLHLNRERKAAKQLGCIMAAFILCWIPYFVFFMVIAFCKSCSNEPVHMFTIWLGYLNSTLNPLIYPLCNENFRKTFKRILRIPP
D(2) dopamine receptor, sequence (P61169 whole entry): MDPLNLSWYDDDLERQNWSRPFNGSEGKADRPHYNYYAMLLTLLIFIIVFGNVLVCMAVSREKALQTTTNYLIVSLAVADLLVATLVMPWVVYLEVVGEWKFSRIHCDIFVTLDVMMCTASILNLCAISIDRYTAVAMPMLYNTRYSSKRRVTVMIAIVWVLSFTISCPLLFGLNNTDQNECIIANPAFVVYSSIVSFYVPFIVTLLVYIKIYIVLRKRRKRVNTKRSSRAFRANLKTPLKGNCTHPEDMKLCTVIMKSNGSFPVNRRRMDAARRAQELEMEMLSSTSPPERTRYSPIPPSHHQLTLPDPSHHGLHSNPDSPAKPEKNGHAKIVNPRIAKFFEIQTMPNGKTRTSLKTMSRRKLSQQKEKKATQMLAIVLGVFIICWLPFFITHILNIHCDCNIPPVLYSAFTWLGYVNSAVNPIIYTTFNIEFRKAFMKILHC
5-hydroxytryptamine receptor 2A, sequence (P14842 whole entry): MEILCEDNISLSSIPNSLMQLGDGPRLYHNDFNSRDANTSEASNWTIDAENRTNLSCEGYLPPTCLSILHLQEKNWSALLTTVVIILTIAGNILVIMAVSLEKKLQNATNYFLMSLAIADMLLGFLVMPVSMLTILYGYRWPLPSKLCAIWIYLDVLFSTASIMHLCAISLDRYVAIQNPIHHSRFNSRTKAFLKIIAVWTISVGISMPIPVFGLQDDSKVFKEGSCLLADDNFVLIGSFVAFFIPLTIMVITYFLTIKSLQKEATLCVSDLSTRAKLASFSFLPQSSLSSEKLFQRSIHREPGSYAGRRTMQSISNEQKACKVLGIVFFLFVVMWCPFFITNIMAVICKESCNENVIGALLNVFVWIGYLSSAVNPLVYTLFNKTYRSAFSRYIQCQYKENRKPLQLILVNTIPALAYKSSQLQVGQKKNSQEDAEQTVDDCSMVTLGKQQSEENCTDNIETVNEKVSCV

Row | SMILES | Ki [1] | Ki (Histamine H1 receptor) | Ki [2] | Ki [3] | Ki (D(2) dopamine receptor) | Ki [4]
1 | Cc1cc(=O)oc2cc(OCCCCN3CCC(c4noc5cc(F)ccc45)CC3)ccc12 | 8.4 nM | 19.6 nM | 3.5 nM | 159.6 nM | 4.9 nM | 11.9 nM
2 | COc1ccccc1N1CCN(CCCCOc2ccc3c(C)cc(=O)oc3c2)CC1 | 8 nM | > 10000 nM | 0.012 nM | 86.9 nM | 1.4 nM | 1000 nM
3 | O=c1cc(-c2ccccc2)c2ccc(OCCCCN3CCC(c4noc5cc(F)ccc45)CC3)cc2o1 | 9.2 nM | 38.1 nM | 12.7 nM | 46.9 nM | 14.8 nM | 256 nM
4 | Cc1cc(=O)oc2c(Cl)c(OCCCCN3CCC(c4noc5cc(F)ccc45)CC3)ccc12 | 0.3 nM | 1130 nM | 3.3 nM | 15.6 nM | 2.6 nM | 1700 nM

Continued by falling Ki [1], values first:

Row | Ki [1] | Ki (Histamine H1 receptor) | Ki [2] | Ki [3] | Ki (D(2) dopamine receptor) | Ki [4] | SMILES
5 | 0.9 nM | 21.3 nM | 12.9 nM | 598.6 nM | 5.3 nM | 68.9 nM | Cc1cc(=O)oc2c(C)c(OCCCCN3CCC(c4noc5cc(F)ccc45)CC3)ccc12
6 | 0.3 nM | 550 nM | 16.7 nM | 124.3 nM | 4 nM | 389 nM | Cc1c(C)c2ccc(OCCCCN3CCC(c4noc5cc(F)ccc45)CC3)cc2oc1=O
